Assay results: PubChem BioAssay (NCI)
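Values below derive from 48-hour exposures of cells grown in 96-well plates, with endpoints linearly interpolated between the two concentrations bracketing the appropriate inhibition level. TGI: concentration producing complete growth inhibition.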

How the values were obtained:
Test in all cases: DTP human tumour cell line panel, 48 h
[1] = system: NCI-H522 lung
[2] = system: RXF 393 renal
[3] = system: K-562 leukemia
[4] = system: HCC-2998 colon
[5] = system: OVCAR-8 ovarian
[6] = system: SN12C renal
[7] = system: NCI-H226 lung
[8] = system: 786-0 renal
[9] = system: SK-MEL-2 melanoma
[10] = system: MDA-MB-435
[11] = system: UO-31 renal
[12] = system: OVCAR-4 ovarian
[13] = system: SNB-75 CNS
[14] = system: UACC-257 melanoma
[15] = system: KM12 colon
[16] = system: TK-10 renal
[17] = system: CAKI-1 renal
[18] = system: OVCAR-3 ovarian
[19] = system: SK-MEL-28 melanoma
[20] = system: NCI-H460 lung
[21] = system: HL-60(TB) leukemia
[22] = system: HCT-15 colon
[23] = system: EKVX NSCLC
[24] = system: UACC-62 melanoma
[25] = system: MOLT-4 leukemia
[26] = system: M14 melanoma
[27] = system: T-47D breast
[28] = system: NCI-H23 lung
[29] = system: PC-3 prostate
[30] = system: MDA-N
[31] = system: A498 renal
[32] = system: MDA-MB-231 breast
[33] = system: HS 578T breast
[34] = system: CCRF-CEM leukemia
[35] = system: LOX IMVI melanoma
[36] = system: SF-268 CNS
[37] = system: SK-OV-3 ovarian
[38] = system: U251 CNS
[39] = system: HT29 colon
[40] = system: DU-145 prostate
[41] = system: SF-539 CNS
[42] = system: SK-MEL-5 melanoma
[43] = system: MCF7 breast
[44] = system: NCI/ADR-RES ovarian
[45] = system: SR leukemia
[46] = system: BT-549 breast
[47] = system: HCT-116 colon
[48] = system: SW-620 colon
[49] = system: RPMI-8226 leukemia
[50] = system: COLO 205 colon
[51] = system: SNB-19 CNS
[52] = system: A549 NSCLC
[53] = system: MALME-3M melanoma
[54] = system: OVCAR-5 ovarian
[55] = system: ACHN renal
[56] = system: SF-295 CNS
[57] = system: HOP-92 NSCLC
[58] = system: IGROV1 ovarian
[59] = system: HOP-62 NSCLC

O=c1[nH][nH]c(=O)n1Cc1ccccc1
TGI [1]: > 100 µM
TGI [2]: > 100 µM
TGI [3]: > 100 µM
TGI [4]: > 100 µM
TGI [5]: > 100 µM
TGI [6]: > 100 µM
TGI [7]: > 100 µM
TGI [8]: > 100 µM
TGI [9]: > 100 µM
TGI [10]: > 100 µM
TGI [11]: > 100 µM
TGI [12]: > 100 µM
TGI [13]: > 100 µM
TGI [14]: > 100 µM
TGI [15]: > 100 µM
TGI [16]: > 100 µM
TGI [17]: > 100 µM
TGI [18]: > 100 µM
TGI [19]: > 100 µM
TGI [20]: > 100 µM
TGI [21]: > 100 µM
TGI [22]: > 100 µM
TGI [23]: > 100 µM
TGI [24]: > 100 µM
TGI [25]: > 100 µM
TGI [26]: > 100 µM
TGI [27]: > 100 µM
TGI [28]: > 100 µM
TGI [29]: > 100 µM
TGI [30]: > 100 µM
TGI [31]: > 100 µM
TGI [32]: > 100 µM
TGI [33]: > 100 µM
TGI [34]: > 100 µM
TGI [35]: > 100 µM
TGI [36]: > 100 µM
TGI [37]: > 100 µM
TGI [38]: > 100 µM
TGI [39]: > 100 µM
TGI [40]: > 100 µM
TGI [41]: > 100 µM
TGI [42]: > 100 µM
TGI [43]: > 100 µM
TGI [44]: > 100 µM
TGI [45]: > 100 µM
TGI [46]: > 100 µM
TGI [47]: > 100 µM
TGI [48]: > 100 µM
TGI [49]: > 100 µM
TGI [50]: > 100 µM
TGI [51]: > 100 µM
TGI [52]: > 100 µM
TGI [53]: > 100 µM
TGI [54]: > 100 µM

Nc1ccc(-c2nc3ccccc3s2)cc1CO
TGI [55]: > 100 µM
TGI [1]: > 100 µM
TGI [2]: > 100 µM
TGI [3]: > 100 µM
TGI [4]: > 100 µM
TGI [5]: > 100 µM
TGI [6]: > 100 µM
TGI [8]: > 100 µM
TGI [9]: > 100 µM
TGI [10]: > 100 µM
TGI [11]: > 100 µM
TGI [12]: > 100 µM
TGI [56]: > 100 µM
TGI [13]: > 100 µM
TGI [14]: > 100 µM
TGI [15]: > 100 µM
TGI [16]: > 100 µM
TGI [17]: > 100 µM
TGI [18]: > 100 µM
TGI [19]: > 100 µM
TGI [57]: > 100 µM
TGI [20]: > 100 µM
TGI [21]: > 100 µM
TGI [22]: > 100 µM
TGI [23]: > 49.2 µM
TGI [24]: > 100 µM
TGI [25]: > 100 µM
TGI [26]: > 100 µM
TGI [27]: > 100 µM
TGI [28]: > 100 µM
TGI [58]: > 100 µM
TGI [29]: > 100 µM
TGI [30]: > 100 µM
TGI [31]: > 100 µM
TGI [59]: > 90.4 µM
TGI [32]: > 100 µM
TGI [33]: > 100 µM
TGI [34]: > 100 µM
TGI [35]: > 100 µM
TGI [36]: > 100 µM
TGI [37]: > 100 µM
TGI [38]: > 100 µM
TGI [39]: > 100 µM
TGI [40]: > 100 µM
TGI [42]: > 100 µM
TGI [44]: > 100 µM
TGI [45]: > 100 µM
TGI [46]: > 100 µM
TGI [47]: > 100 µM
TGI [48]: > 100 µM
TGI [49]: > 100 µM
TGI [50]: > 100 µM
TGI [51]: > 100 µM
TGI [52]: > 100 µM
TGI [53]: > 100 µM
TGI [54]: > 100 µM

COc1ccccc1N1CCN(S(=O)(=O)c2ccc(Cl)cc2)C1=N
TGI [55]: > 100 µM
TGI [1]: > 100 µM
TGI [2]: > 100 µM
TGI [3]: > 100 µM
TGI [5]: > 100 µM
TGI [6]: > 100 µM
TGI [8]: > 100 µM
TGI [9]: > 100 µM
TGI [10]: > 100 µM
TGI [11]: > 100 µM
TGI [12]: > 100 µM
TGI [56]: > 100 µM
TGI [13]: > 100 µM
TGI [14]: > 100 µM
TGI [15]: > 100 µM
TGI [16]: > 100 µM
TGI [17]: > 100 µM
TGI [18]: > 100 µM
TGI [19]: > 100 µM
TGI [20]: > 100 µM
TGI [22]: > 100 µM
TGI [23]: > 100 µM
TGI [24]: > 100 µM
TGI [25]: > 100 µM
TGI [26]: > 100 µM
TGI [27]: > 100 µM
TGI [28]: > 100 µM
TGI [29]: > 100 µM
TGI [30]: > 100 µM
TGI [31]: > 100 µM
TGI [59]: > 100 µM
TGI [32]: > 100 µM
TGI [33]: > 100 µM
TGI [36]: > 100 µM
TGI [37]: > 100 µM
TGI [38]: > 100 µM
TGI [40]: > 100 µM
TGI [41]: > 100 µM
TGI [42]: > 100 µM
TGI [43]: > 100 µM
TGI [44]: > 100 µM
TGI [46]: > 100 µM
TGI [47]: > 100 µM
TGI [48]: > 100 µM
TGI [49]: > 100 µM
TGI [50]: > 100 µM
TGI [51]: > 100 µM
TGI [52]: > 100 µM
TGI [54]: > 100 µM

CCCCC/C=C\C=C\CCCCCCCCC(=O)OC
TGI [55]: > 100 µM
TGI [2]: > 100 µM
TGI [3]: > 100 µM
TGI [5]: > 100 µM
TGI [6]: > 100 µM
TGI [7]: > 100 µM
TGI [8]: > 100 µM
TGI [9]: > 100 µM
TGI [11]: 31.3 µM
TGI [12]: > 100 µM
TGI [56]: > 100 µM
TGI [13]: > 100 µM
TGI [14]: > 100 µM
TGI [15]: > 100 µM
TGI [16]: > 100 µM
TGI [17]: > 100 µM
TGI [18]: > 100 µM
TGI [19]: > 100 µM
TGI [57]: > 100 µM
TGI [20]: > 100 µM
TGI [21]: > 100 µM
TGI [22]: > 100 µM
TGI [23]: > 100 µM
TGI [25]: > 100 µM
TGI [26]: > 100 µM
TGI [27]: > 100 µM
TGI [28]: > 100 µM
TGI [58]: > 100 µM
TGI [29]: > 100 µM
TGI [30]: > 100 µM
TGI [31]: > 100 µM
TGI [59]: > 100 µM
TGI [32]: > 100 µM
TGI [33]: > 100 µM
TGI [35]: 87.9 µM
TGI [36]: > 100 µM
TGI [37]: > 100 µM
TGI [38]: > 100 µM
TGI [39]: > 100 µM
TGI [40]: > 100 µM
TGI [41]: > 100 µM
TGI [42]: > 100 µM
TGI [43]: > 100 µM
TGI [44]: > 100 µM
TGI [45]: > 100 µM
TGI [46]: > 100 µM
TGI [47]: > 100 µM
TGI [48]: > 100 µM
TGI [49]: > 100 µM
TGI [50]: > 100 µM
TGI [51]: > 100 µM
TGI [52]: > 100 µM
TGI [53]: > 100 µM
TGI [54]: > 100 µM
